For eleven compounds, ED50, ED₅₀ and IC50 results are on record in patent publication EP0318859A2, “N-substituted mercaptopropanamide derivatives” (Dainippon Pharmaceutical Co., Ltd., priority 1987, dated 1989).

In assay [1] the test system is Female Std:ddy mice. Description: Analgesic activity (mouse phenylquinone writhing test). Conditions: po, 30 minutes before i.p. phenylquinone, reduction in writhes greater than 50 % of vehicle control = effective, Litchfield and Wilcoxon, read-out: ED₅₀. Format: in vivo. The protocol:
(1) Analgesic activity (mouse phenylquinone writhing test)
Female Std:ddy mice (weighing 18 - 22 g) were used. Each animal was given intraperitoneally 10 ml/kg of 0.03 % phenylquinone in 5 % aqueous ethanol, and the number of writhes was counted for 15 minutes, beginning 5 minutes after the injection of phenylquinone. Test compounds, suspended or dissolved in 0.5 % gum tragacanth aqueous solution, were given orally 30 minutes before the injection of phenylquinone. A reduction in writhes counts greater than 50 % of the vehicle control value was considered to be effective. The ED₅₀-value was calculated from the effective rate according to the method of Litchfield and Wilcoxon.
In general terms: Writhing tests count abdominal constrictions after an irritant is injected.

Assay [2] concerns enkephalinase. The assay can be described thus: Enkephalinase inhibitory activity in vivo (potentiation of the analgesic activity of DAME, tail pressure pain). Conditions: p.o., 30 minutes before intracisternal DAME; pressure pain threshold measured 5 minutes after DAME; male Std:ddy mice. The protocol:
(2) Enkephalinase inhibitory activity in vivo
(Potentiation of the analgesic activity of DAME)
Pressure pain was induced by pressing the tail of male Std:ddy mice (weighing 20 - 26 g) using an apparatus for pressure measurement. The pressure pain threshold (biting response) was measured as mm. Test compound, dissolved or suspended in 0.5 % gum tragacanth aqueous solution, was given orally 30 minutes before intracisternaly administration of D-Ala²-Met⁵-enkephalin (DAME). Five minutes after administration of DAME, the pressure pain threshold was measured, and the potentiation activity of test compounds on the analgesic effect of DAME was tested.

Assay [3] has as its target T1, enkephalinase (Rattus norvegicus, UniProt P07861).
T1 construct: Male Std:Wistar rats were decapitated and the striata were removed; from tissue; host or cells: rat striatum (membrane pellet, solubilised with 1 % Triton X-100, DEAE-cellulose fraction)
T1 sequence (P07861 1-750): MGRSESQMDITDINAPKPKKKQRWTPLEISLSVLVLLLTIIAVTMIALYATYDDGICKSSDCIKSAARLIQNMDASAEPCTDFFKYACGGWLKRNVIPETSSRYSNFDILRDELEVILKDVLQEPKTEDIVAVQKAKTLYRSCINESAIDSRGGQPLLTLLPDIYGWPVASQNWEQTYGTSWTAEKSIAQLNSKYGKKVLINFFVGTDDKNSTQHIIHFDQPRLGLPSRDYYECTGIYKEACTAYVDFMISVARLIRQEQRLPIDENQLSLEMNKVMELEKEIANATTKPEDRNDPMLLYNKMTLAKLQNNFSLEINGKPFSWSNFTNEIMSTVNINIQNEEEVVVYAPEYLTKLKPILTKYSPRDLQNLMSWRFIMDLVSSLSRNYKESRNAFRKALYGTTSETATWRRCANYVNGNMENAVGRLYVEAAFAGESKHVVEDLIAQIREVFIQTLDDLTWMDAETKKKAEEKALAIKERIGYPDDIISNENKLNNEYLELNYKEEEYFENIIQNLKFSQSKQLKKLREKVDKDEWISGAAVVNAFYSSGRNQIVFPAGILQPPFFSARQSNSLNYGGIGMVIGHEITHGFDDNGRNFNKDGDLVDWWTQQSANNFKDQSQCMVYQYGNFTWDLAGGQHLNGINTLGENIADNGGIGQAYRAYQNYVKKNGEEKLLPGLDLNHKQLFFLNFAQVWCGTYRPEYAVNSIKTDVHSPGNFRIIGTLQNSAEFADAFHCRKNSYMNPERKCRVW
Description: Enkephalinase inhibitory activity in vitro ([³H]-leucine-enkephalin degradation). It counts as biochemical, rats. Conditions: rat striatum enkephalinase; substrate [³H]-leucine-enkephalin 20 nM; 1 hour at 37°C; read-out: IC₅₀. As for the experimental part:
(3) Enkephalinase inhibitory activity in vitro
Enkephalin degrading enzymes were separated according to the method described by Gorenstein and Snyder (Life Science, 25, 2065 (1979)).
Male Std:Wistar rats were decapitated and the striata were removed. These were homogenized in 30 volumes of 50 mM Tris-HCl buffer (pH 7.4) and centrifuged for 15 minutes at 1,000 x g. The supernatant was centrifuged for 15 minutes at 50,000 x g. The pellet was washed three times with the same buffer and then suspended in 15 volumes of 50 mM Tris-HCl buffer (pH 7.4) containing 1 % Triton X-100, followed by incubation for 45 minutes at 37°C. After centrifugation for 1 hour at 100,000 x g, the supernatant was applied onto DEAE-cellulose ion exchange chromatography column. The fraction containing enkephalin dipeptidylcarboxypeptidase was used as enkephalinase sample.
(ii) Measurement of inhibitory activity
After preincubation of test compound and enkephalinase for 5 minutes at 37°C, [³H]-leucine-enkephalin (substrate) was added to the reaction mixture and then the mixture was incubated for 1 hour at 37°C (final volume: 100 µl, final concentration of substarate: 20 nM). Ice-cold 0.2N HCl was added to the mixture to stop the reaction. Substrate and metabolites were separated with TLC and Porapak Q® column by the method of Vogel and Alstein [FEBS Letters, 80, 332 (1977)]. Enzyme activity was estimated from the production rate of [³H]-Tyr-Gly-Gly. The IC₅₀-value of test compounds was calculated from the inhibitory rates, estimated from the difference between the enzyme activities in the absence and the presence of test compound.

Take `CC(=O)SCC(Cc1ccccc1)C(=O)Nc1cc(C)cc(C(=O)O)c1` (stereo not shown) [Example 1, 3-[(2-acetylthiomethyl-3-phenylpropionyl)amino]-5-methylbenzoic acid]: in assay [1], the ED50 stood at 22.3 mg/kg.

`Cc1cc(NC(=O)C(CS)Cc2ccccc2)cc(C(=O)O)c1` (stereo not shown) [Example 2, 3-[(2-mercaptomethyl-3-phenylpropionyl)amino]-5-methylbenzoic acid]: the ED50 in assay [1] amounted to 16.6 mg/kg. Moreover, the ED₅₀ in assay [2] was 20.2 mg/kg. Besides, the IC50 in assay [3] came to 5.4 nM.

Regarding `CC(=O)SCC(Cc1ccccc1)C(=O)Nc1cccc(C(=O)O)c1C` (stereo not shown) [Example 3, 3-[(2-acetylthiomethyl-3-phenylpropionyl)amino]-2-methylbenzoic acid], in assay [1], the ED50 stood at 21.6 mg/kg.

As to `Cc1c(NC(=O)C(CS)Cc2ccccc2)cccc1C(=O)O` (stereo not shown) [Example 7, 3-[(2-mercaptomethyl-3-phenylpropionyl)amino]-2-methylbenzoic acid], the ED50 in assay [1] came to 17.9 mg/kg. Further, the ED₅₀ in assay [2] was found to be 38.3 mg/kg. In assay [3], the IC50 turned out to be 7.5 nM.

Consider `CCc1cc(NC(=O)C(CSC(C)=O)Cc2ccccc2)cc(C(=O)O)c1` (stereo not shown) [Example 64, 3-[(2-acetylthiomethyl-3-phenylpropionyl)amino]-5-ethylbenzoic acid], for which the ED50 in assay [1] turned out to be 11 mg/kg. Moreover, in assay [2], the ED₅₀ is recorded as 20.8 mg/kg.

In the case of `CCc1cc(NC(=O)C(CS)Cc2ccccc2)cc(C(=O)O)c1` (stereo not shown) [Example 65, 3-[(2-mercaptomethyl-3-phenylpropionyl)amino]-5-ethylbenzoic acid], in assay [1], the ED50 came out at 22.9 mg/kg. Also, the IC50 in assay [3] amounted to 4.6 nM.

Turning to `CC(=O)SCC(CC(C)C)C(=O)Nc1cccc(C(=O)O)c1C` (stereo not shown) [Example 175, 3-[(2-acetylthiomethyl-4-methylpentanoyl)amino]-2-methylbenzoic acid], the ED50 in assay [1] came to 21.1 mg/kg.

As for `CC(=O)SCC(CC(C)C)C(=O)Nc1cc(C)cc(C(=O)O)c1` (stereo not shown) [Example 176, 3-[(2-acetylthiomethyl-4-methylpentanoyl)amino]-5-methylbenzoic acid], the ED50 in assay [1] amounted to 22.9 mg/kg.

Take `CC(C)CC(CS)C(=O)Nc1cccc(C(=O)O)c1` (stereo not shown) [Example 186, 3-[(2-mercaptomethyl-4-methylpentanoyl)amino]benzoic acid]: in assay [1], the ED50 turned out to be 15 mg/kg. The IC50 in assay [3] turned out to be 8.4 nM.

In the case of `Cc1c(NC(=O)C(CS)CC(C)C)cccc1C(=O)O` (stereo not shown) [Example 187, 3-[(2-mercaptomethyl-4-methylpentanoyl)amino]-2-methylbenzoic acid], the ED50 in assay [1] worked out at 20.1 mg/kg. In addition, the IC50 in assay [3] stood at 7.8 nM.

On to `O=C(O)CNC(=O)C(CS)Cc1ccccc1` (stereo not shown) [Thiorphan, [(D,L)-2-mercaptomethyl-3-phenylpropionyl]glycine, reference compound], for which the ED50 in assay [1] stood at 137 mg/kg.
